In patent US20240238300A1, “TREATMENT METHODS FOR SUBJECTS WITH CANCER HAVING AN ABERRATION IN EGFR AND/OR HER2” (TAIHO PHARMACEUTICAL CO., LTD., priority 2021, published 2024):
Where two headings read alike, the source gives them in different places.

Legend:
BCRP = system: T1, BCRP; test: substrate susceptibility on human BCRP, bidirectional transcellular transport, BCRP/MDCK II cells; type: in vitro ADME; conditions: human, with Ko143 10 μmol/L; read-out: net flux ratio
T1 construct: expressed in transfected cells; host or cells: MDCK II (canine kidney) cells expressing human BCRP; parent MDCK II as control
Method: (§1) Substrate susceptibility of Compound (1) on human BCRP. Time-dependence of the bidirectional transcellular transport of 0.3, 0.5, 1, 3, and 30 μmol/L Compound (1) across human BCRP/Madin-Darby canine kidney II (MDCK II) cells and parent/MDCK II cells was analyzed.

human BCRP [1] = system: T2, human BCRP; test: as above; type: in vitro ADME; conditions: human
T2 construct: expressed in transfected cells; host or cells: MDCK II (canine kidney) cells expressing human BCRP; parent MDCK II as control
Method: as §1

[2] = system: NCI-N87 xenografts relapsed from T-DM1; conditions: for T/C: Step II Day 22, vs T-DM1 group; for Number of Death / TV (mean ± SE): Step II Day 22
Method: Male nude mice (BALB/cAJ1-mu/mu) were implanted with NCI-N87 human gastric carcinoma (HER2 overexpressing); 1.0×10^7 cells in 100 μL of PBS were implanted subcutaneously per mouse.
PO; or treated with an oral suspension of Compound (1) once per day at a dosage of 25 mg/kg/day, PO. The tumor volumes (TV, mm^3) and body weights of the mice were recorded.

[3] = system: refractory T-DM1 NCI-N87 tumor fragment #6; test: refractory T-DM1 tumor fragment model, comparison to lapatinib and tucatinib; type: in vivo, male nude mice (BALB/cAJcl-nu/nu); conditions: for antitumor effect (tumor volume): 21 days
Method: Cancer Sci. 2020 June; 111(6):2123-2131. The NCI-N87 tumor fragment #6 obtained from the above procedure was then passaged two times into male nude mice (BALB/cAJcl-nu/nu) subcutaneously before the efficacy test of Compound (1).
The tumor volumes (TV, mnm^3) and body weights of the mice were recorded.

[4] = system: MCF10A_HER2/insYVMA cells; test: growth inhibitory effect in human cancer cell lines (GI50); type: cell-based; conditions: engineered to express HER2 A775_G776insYVMA
EPHA6 = EPHA6 (Homo sapiens, UniProt Q9UF33); test: panel enzyme assay of 257 kinases; type: biochemical; conditions: read-out: % Inhibition by Compound (1) at 1000 nmol/L
Method: (§2) To investigate further kinase selectivity of Compound (1), a panel enzyme assay of 257 kinases for Compound (1) was conducted.

TXK = TXK (Homo sapiens, UniProt P42681); test: panel enzyme assay of 257 kinases; type: biochemical; conditions: read-out: % Inhibition by Compound (1) at 1000 nmol/L
Method: as §2

FLT4 = FLT4 (Homo sapiens, UniProt P35916); test: panel enzyme assay of 257 kinases; type: biochemical; conditions: read-out: % Inhibition by Compound (1) at 1000 nmol/L
Method: as §2

ITK = ITK (Homo sapiens, UniProt Q08881); test: panel enzyme assay of 257 kinases; type: biochemical; conditions: read-out: % Inhibition by Compound (1) at 1000 nmol/L
Method: as §2

BLK = BLK (Homo sapiens, UniProt P51451); test: panel enzyme assay of 257 kinases; type: biochemical; conditions: read-out: % Inhibition by Compound (1) at 1000 nmol/L
Method: as §2

BTK = BTK (Homo sapiens, UniProt Q06187); test: panel enzyme assay of 257 kinases; type: biochemical; conditions: read-out: % Inhibition by Compound (1) at 1000 nmol/L
Method: as §2

EGFR = EGFR (Homo sapiens, UniProt P00533); test: panel enzyme assay of 257 kinases; type: biochemical; conditions: read-out: % Inhibition by Compound (1) at 1000 nmol/L
Method: as §2

KDR = KDR (Homo sapiens, UniProt P35968); test: panel enzyme assay of 257 kinases; type: biochemical; conditions: read-out: % Inhibition by Compound (1) at 1000 nmol/L
Method: as §2

DDR1 = DDR1 (Homo sapiens, UniProt Q08345); test: panel enzyme assay of 257 kinases; type: biochemical; conditions: read-out: % Inhibition by Compound (1) at 1000 nmol/L
Method: as §2

HER4 = HER4 (Homo sapiens, UniProt Q15303); test: panel enzyme assay of 257 kinases; type: biochemical; conditions: read-out: % Inhibition by Compound (1) at 1000 nmol/L
Method: as §2

BMX = BMX (Homo sapiens, UniProt P51813); test: panel enzyme assay of 257 kinases; type: biochemical; conditions: read-out: % Inhibition by Compound (1) at 1000 nmol/L
Method: as §2

TEC = TEC (Homo sapiens, UniProt P42680); test: panel enzyme assay of 257 kinases; type: biochemical; conditions: read-out: % Inhibition by Compound (1) at 1000 nmol/L
Method: as §2

HER2 = HER2 (Homo sapiens, UniProt P04626); test: panel enzyme assay of 257 kinases; type: biochemical; conditions: read-out: % Inhibition by Compound (1) at 1000 nmol/L
Method: as §2

JAK3 = JAK3 (Homo sapiens, UniProt P52333); test: panel enzyme assay of 257 kinases; type: biochemical; conditions: read-out: % Inhibition by Compound (1) at 1000 nmol/L
Method: as §2

human BCRP [5] = biological target: T3, human BCRP (Homo sapiens, UniProt Q9UNQ0); test: in vitro
T3 sequence (Q9UNQ0 1-655): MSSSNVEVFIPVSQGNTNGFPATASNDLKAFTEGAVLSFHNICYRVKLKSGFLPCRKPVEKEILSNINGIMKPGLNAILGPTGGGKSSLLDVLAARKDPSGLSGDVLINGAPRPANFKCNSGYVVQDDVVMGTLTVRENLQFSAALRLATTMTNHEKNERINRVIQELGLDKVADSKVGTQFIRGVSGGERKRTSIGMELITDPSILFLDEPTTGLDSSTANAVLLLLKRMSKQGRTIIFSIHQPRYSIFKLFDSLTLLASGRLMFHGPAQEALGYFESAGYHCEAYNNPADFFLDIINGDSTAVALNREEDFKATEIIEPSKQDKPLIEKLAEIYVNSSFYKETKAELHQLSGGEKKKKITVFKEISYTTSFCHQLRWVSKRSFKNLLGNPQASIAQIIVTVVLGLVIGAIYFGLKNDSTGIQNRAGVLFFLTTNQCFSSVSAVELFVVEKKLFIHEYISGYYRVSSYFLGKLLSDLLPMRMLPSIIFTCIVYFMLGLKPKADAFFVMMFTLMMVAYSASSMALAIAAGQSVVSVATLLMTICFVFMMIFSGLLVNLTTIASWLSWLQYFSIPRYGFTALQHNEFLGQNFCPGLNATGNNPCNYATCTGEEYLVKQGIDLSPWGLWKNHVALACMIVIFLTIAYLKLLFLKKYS

Sequence of FLT4 (P35916 25-1363, species assumed): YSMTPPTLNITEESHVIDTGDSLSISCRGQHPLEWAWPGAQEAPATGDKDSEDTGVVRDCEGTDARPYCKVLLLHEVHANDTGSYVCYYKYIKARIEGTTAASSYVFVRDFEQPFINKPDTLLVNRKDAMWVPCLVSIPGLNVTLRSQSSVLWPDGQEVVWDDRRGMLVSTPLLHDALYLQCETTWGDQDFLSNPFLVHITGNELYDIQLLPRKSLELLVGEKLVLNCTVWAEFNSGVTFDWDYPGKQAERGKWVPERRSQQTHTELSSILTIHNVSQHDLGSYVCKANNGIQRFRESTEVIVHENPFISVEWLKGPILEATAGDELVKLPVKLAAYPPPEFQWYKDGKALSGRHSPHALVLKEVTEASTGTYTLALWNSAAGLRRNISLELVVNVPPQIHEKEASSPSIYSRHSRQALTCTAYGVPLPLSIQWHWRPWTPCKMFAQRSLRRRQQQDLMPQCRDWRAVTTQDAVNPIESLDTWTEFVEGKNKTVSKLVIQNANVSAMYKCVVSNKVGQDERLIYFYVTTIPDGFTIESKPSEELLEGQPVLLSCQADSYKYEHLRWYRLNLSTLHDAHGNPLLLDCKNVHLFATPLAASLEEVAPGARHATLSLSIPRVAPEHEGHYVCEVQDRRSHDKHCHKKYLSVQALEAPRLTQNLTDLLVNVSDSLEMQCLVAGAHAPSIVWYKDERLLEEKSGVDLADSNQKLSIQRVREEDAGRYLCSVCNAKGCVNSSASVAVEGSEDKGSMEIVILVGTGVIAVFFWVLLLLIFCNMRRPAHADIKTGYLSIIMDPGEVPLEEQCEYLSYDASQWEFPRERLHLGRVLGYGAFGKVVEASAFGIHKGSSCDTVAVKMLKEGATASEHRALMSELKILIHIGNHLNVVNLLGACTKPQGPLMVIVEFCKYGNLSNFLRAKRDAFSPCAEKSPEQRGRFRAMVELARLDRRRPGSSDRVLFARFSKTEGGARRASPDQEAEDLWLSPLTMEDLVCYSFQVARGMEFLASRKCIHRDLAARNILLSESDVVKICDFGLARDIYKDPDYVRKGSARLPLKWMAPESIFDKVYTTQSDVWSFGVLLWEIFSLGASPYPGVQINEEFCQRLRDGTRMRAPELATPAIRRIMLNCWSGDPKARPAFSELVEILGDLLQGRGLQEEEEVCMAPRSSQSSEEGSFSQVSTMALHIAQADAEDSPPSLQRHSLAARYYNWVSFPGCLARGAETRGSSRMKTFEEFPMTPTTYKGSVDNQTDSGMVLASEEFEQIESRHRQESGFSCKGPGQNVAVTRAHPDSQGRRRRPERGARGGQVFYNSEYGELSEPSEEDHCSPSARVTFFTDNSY
Sequence of EPHA6 (Q9UF33 23-1036, species assumed): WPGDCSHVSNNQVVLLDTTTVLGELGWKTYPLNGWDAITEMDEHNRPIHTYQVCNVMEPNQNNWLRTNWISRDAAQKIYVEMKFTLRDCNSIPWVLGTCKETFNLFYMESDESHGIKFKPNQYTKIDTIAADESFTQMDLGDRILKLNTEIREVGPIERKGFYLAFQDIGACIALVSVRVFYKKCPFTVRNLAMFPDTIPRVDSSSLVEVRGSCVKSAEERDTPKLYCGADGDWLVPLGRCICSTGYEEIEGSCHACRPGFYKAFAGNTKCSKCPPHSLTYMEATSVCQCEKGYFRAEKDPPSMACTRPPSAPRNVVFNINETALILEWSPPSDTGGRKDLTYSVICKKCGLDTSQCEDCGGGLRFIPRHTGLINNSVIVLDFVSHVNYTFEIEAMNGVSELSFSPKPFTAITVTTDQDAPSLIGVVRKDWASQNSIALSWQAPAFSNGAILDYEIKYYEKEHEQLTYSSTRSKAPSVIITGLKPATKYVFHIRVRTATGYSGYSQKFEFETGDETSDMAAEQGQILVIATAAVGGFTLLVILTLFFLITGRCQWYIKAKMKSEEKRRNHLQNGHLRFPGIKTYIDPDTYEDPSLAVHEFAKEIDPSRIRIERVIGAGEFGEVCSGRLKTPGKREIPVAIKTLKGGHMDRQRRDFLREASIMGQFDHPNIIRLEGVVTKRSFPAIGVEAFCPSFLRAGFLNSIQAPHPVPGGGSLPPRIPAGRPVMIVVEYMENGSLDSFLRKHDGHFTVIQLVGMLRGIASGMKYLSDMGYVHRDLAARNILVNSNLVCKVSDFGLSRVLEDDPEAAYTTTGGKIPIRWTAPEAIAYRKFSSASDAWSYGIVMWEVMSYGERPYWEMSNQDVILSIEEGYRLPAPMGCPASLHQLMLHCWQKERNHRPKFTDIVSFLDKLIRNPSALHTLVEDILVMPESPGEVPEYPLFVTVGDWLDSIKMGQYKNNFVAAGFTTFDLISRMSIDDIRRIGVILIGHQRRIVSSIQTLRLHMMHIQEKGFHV
Sequence of BMX (P51813 whole entry, species assumed): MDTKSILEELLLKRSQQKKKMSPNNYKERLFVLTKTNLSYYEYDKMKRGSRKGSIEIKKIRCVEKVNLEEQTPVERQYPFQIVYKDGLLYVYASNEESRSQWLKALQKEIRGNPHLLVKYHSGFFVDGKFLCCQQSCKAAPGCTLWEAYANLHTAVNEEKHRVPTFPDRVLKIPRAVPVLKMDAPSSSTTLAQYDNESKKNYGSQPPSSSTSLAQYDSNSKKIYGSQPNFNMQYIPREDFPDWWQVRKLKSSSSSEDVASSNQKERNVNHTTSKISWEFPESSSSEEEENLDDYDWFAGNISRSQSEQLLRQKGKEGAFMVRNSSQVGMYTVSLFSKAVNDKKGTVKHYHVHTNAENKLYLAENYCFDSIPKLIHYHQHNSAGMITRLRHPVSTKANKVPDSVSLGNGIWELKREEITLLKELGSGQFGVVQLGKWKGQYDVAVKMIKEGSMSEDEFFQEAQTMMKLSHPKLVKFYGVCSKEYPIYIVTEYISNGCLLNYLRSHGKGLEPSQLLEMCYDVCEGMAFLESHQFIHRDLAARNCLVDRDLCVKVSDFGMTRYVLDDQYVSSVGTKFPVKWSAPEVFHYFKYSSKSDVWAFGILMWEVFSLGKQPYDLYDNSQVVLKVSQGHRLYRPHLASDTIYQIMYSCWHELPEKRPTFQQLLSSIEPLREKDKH
Sequence of DDR1 (Q08345 19-913, species assumed): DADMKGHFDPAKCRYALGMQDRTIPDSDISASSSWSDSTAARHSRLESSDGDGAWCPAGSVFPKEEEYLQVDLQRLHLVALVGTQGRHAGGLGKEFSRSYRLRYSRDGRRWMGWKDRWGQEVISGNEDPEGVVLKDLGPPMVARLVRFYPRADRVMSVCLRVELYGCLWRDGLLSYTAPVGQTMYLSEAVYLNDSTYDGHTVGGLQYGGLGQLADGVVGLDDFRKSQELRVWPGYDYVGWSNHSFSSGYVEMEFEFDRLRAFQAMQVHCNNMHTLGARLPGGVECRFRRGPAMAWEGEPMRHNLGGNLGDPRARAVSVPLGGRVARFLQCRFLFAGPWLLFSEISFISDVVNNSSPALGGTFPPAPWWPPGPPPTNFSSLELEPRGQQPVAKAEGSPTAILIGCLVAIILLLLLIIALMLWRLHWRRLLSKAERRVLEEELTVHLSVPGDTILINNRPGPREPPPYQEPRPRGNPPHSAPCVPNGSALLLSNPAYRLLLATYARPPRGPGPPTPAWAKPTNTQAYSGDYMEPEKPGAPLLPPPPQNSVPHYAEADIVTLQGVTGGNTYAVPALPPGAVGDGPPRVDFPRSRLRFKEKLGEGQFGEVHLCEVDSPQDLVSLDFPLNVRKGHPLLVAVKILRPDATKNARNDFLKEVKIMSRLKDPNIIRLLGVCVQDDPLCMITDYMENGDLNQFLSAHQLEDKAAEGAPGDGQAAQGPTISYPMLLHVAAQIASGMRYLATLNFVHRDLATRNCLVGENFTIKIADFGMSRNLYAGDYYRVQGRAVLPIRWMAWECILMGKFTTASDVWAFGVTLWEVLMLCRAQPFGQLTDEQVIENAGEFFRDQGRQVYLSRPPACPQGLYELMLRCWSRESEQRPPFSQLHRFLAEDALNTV
Sequence of TXK (P42681 whole entry, species assumed): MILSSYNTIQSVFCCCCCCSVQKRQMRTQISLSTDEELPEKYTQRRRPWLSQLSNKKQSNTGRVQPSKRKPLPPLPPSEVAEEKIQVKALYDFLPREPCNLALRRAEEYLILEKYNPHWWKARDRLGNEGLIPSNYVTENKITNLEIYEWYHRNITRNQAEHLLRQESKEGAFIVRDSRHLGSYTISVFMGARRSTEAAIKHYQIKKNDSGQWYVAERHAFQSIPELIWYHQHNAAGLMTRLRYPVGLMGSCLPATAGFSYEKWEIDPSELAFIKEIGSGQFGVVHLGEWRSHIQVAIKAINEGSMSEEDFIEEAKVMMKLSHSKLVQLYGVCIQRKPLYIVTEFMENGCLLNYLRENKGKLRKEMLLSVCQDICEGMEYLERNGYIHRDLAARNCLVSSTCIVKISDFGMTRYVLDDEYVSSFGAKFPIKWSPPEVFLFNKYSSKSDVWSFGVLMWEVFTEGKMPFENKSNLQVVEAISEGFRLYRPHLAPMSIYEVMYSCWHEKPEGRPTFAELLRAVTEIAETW
Sequence of TEC (P42680 whole entry): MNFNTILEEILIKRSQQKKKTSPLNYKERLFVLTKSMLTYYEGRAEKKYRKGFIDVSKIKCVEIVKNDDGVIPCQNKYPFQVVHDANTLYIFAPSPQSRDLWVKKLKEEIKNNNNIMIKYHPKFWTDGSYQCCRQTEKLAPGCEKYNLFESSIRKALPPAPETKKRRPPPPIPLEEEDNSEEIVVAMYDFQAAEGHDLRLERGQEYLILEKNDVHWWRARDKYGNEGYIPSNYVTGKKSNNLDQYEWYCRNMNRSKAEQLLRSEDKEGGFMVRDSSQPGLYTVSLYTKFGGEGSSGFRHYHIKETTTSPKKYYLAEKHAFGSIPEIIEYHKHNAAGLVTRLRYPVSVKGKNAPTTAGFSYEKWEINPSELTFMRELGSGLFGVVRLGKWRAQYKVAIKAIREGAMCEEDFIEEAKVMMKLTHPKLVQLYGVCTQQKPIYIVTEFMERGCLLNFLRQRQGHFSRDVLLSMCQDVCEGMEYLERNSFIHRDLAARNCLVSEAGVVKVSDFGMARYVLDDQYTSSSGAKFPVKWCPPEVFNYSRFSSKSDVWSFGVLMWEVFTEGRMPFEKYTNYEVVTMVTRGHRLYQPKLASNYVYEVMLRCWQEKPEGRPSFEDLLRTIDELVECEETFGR

C=CC(=O)N1C[C@H](n2c(C#CC3CC3)c(C(=O)N[C@H](C)c3ccccc3)c3c(N)ncnc32)C[C@@H]1C [Compound (1), 7-((3R,5S)-1-acryloyl-5-methylpyrrolidin-3-yl)-4-amino-6-(cyclopropylethynyl)-N—((R)-1-phenylethyl)-7H-pyrrolo[2,3-d]pyrimidine-5-carboxamide] showed an efflux ratio at 2 h (BCRP) of 2 ± 0.5, an efflux ratio at 3 h (BCRP) of 1.4 ± 0.2 and an efflux ratio at 2 h, 0.5 μmol/L (human BCRP [1]; with Ko143 10 μmol/L, read-out: net flux ratio) of 1.2 ± 0.3. The efflux ratio at 4 h, 0.3 μmol/L (human BCRP [1]; with Ko143 (concentration not stated for this arm), read-out: net flux ratio) was 1.1 ± 0.2, the efflux ratio at 0.3 μmol/L (human BCRP [1]; 0.3 μmol/L Compound (1), 3 and 4 hours, read-out: flux ratios in parent and human BCRP/MDCK II cells) was > 2 and the “body weight loss (tolerance)” value ([2]; 12.5 and 25 mg/kg/day) was “did not cause severe body weight loss”. For the same compound, the T/C ([2]; 12.5 mg/kg/day po Days 1-21) was 75.7%, the T/C ([2]; 25 mg/kg/day po Days 1-21) was 62.4% and the “Number of Death” value ([2]; 12.5 mg/kg/day po Days 1-21) was 0. For the same compound, the “TV (mean ± SE)” value ([2]; 12.5 mg/kg/day po Days 1-21) was 435.7 mm^3, the “Number of Death” value ([2]; 25 mg/kg/day po Days 1-21) was 0 and the “TV (mean ± SE)” value ([2]; 25 mg/kg/day po Days 1-21) was 353.7 mm^3. For the same compound, the “antitumor effect (tumor volume)” value ([3]; 12.5 mg/kg/day PO once per day) was “arresting tumor growth”, the “antitumor effect (tumor volume)” value ([3]; 20 mg/kg/day PO once per day) was “inducing tumor regression” and the “antitumor effect compared to lapatinib (50 mg/kg b.i.d.) or tucatinib (75 mg/kg b.i.d.)” value ([3]; 12.5 and 20 mg/kg/day PO) was “superior antitumor effects”. For the same compound, the body weight loss ([3]; 12.5 or 20 mg/kg) was “did not cause body weight loss”, the GI50 [4] was 23.3 ± 1.4 nM and the inhibition at 1 µM (EPHA6) was 72.9%. It also gave an inhibition at 1 µM (TXK) of 89.4%, an inhibition at 1 µM (FLT4) of 80.4% and an inhibition at 1 µM (ITK) of 56.4%. It also gave an inhibition at 1 µM (BLK) of 64.7%, an inhibition at 1 µM (BTK) of 80% and an inhibition at 1 µM (EGFR) of 98.3%. The inhibition at 1 µM (KDR) was 67.2%, the inhibition at 1 µM (DDR1) was 86% and the inhibition at 1 µM (HER4) was 98.4%. For the same compound, the inhibition at 1 µM (BMX) was 98.9%, the inhibition at 1 µM (TEC) was 81.7% and the inhibition at 1 µM (HER2) was 100%. The inhibition at 1 µM (JAK3) was 99.2%, the activity at 3 h, 0.01 μmol/L (human BCRP [5]) was 114% and the activity at 3 h, 0.1 μmol/L (human BCRP [5]) was 95%. The activity at 3 h, 0.5 μmol/L (human BCRP [5]) was 54%, the activity at 3 h, 1 μmol/L (human BCRP [5]) was 24% and the activity at 3 h, 5 μmol/L (human BCRP [5]) was 10%. The activity at 3 h, 10 μmol/L (human BCRP [5]) was 3%.
